Numbers after ± are expanded uncertainties.
How the values were obtained:
[1] = xn = mol fraction of the nth substance listed; conditions: Liquid, Vibrating tube method
[2] = relative permittivity at various frequencies (dimensionless); xn = mol fraction of the nth substance listed; conditions: Liquid, Frequency=1 MHz, Parallel plate capacitor

COCCOC [1,2-dimethoxyethane] + CCCCCCCCCCCC
97 kPa
Conditions	mass density, [1] [kg/m3]	relative permittivity, [2]
288.15 K, x2 = 0	872.06 ± 1	7.41 ± 0.07
288.15 K, x2 = 0.05	–	6.6 ± 0.07
288.15 K, x2 = 0.0501	856.95 ± 1	–
288.15 K, x2 = 0.101	843.87 ± 1	–
288.15 K, x2 = 0.1013	–	5.92 ± 0.06
288.15 K, x2 = 0.2007	–	4.89 ± 0.05
288.15 K, x2 = 0.2009	823.2 ± 1	–
288.15 K, x2 = 0.3011	807.11 ± 1	–
288.15 K, x2 = 0.3016	–	4.13 ± 0.04
288.15 K, x2 = 0.402	–	3.57 ± 0.04
288.15 K, x2 = 0.4022	794.1 ± 1	–
288.15 K, x2 = 0.5014	783.69 ± 1	–
288.15 K, x2 = 0.5015	–	3.15 ± 0.03
288.15 K, x2 = 0.6016	–	2.81 ± 0.03
288.15 K, x2 = 0.6019	774.99 ± 1	–
288.15 K, x2 = 0.6998	–	2.53 ± 0.03
288.15 K, x2 = 0.7001	767.94 ± 1	–
288.15 K, x2 = 0.8049	761.62 ± 1	–
288.15 K, x2 = 0.8051	–	2.33 ± 0.02
288.15 K, x2 = 0.9011	756.69 ± 1	–
288.15 K, x2 = 0.9019	–	2.16 ± 0.02
288.15 K, x2 = 0.9514	754.42 ± 1	–
288.15 K, x2 = 0.9515	–	2.1 ± 0.02
298.15 K, x2 = 0	861.17 ± 1	7.07 ± 0.07
298.15 K, x2 = 0.0499	846.45 ± 1	–
298.15 K, x2 = 0.05	–	6.31 ± 0.06
298.15 K, x2 = 0.1013	833.6 ± 1	–
298.15 K, x2 = 0.102	–	5.66 ± 0.06
298.15 K, x2 = 0.2014	–	4.71 ± 0.05
298.15 K, x2 = 0.2016	813.45 ± 1	–
298.15 K, x2 = 0.3016	–	4 ± 0.04
298.15 K, x2 = 0.3019	797.83 ± 1	–
298.15 K, x2 = 0.4011	–	3.48 ± 0.04
298.15 K, x2 = 0.4015	785.4 ± 1	–
298.15 K, x2 = 0.5059	774.85 ± 1	–
298.15 K, x2 = 0.5061	–	3.06 ± 0.03
298.15 K, x2 = 0.6021	766.88 ± 1	–
298.15 K, x2 = 0.6047	–	2.75 ± 0.03
298.15 K, x2 = 0.7021	760.01 ± 1	–
298.15 K, x2 = 0.7033	–	2.51 ± 0.03
298.15 K, x2 = 0.8048	754.06 ± 1	–
298.15 K, x2 = 0.8055	–	2.31 ± 0.02
298.15 K, x2 = 0.9024	–	2.15 ± 0.02
298.15 K, x2 = 0.9025	749.21 ± 1	–
298.15 K, x2 = 0.9491	747.21 ± 1	–
298.15 K, x2 = 0.9498	–	2.09 ± 0.02
308.15 K, x2 = 0	850.13 ± 1	6.75 ± 0.07
308.15 K, x2 = 0.0495	835.93 ± 1	–
308.15 K, x2 = 0.05	–	6.04 ± 0.06
308.15 K, x2 = 0.0982	824.01 ± 1	–
308.15 K, x2 = 0.1018	–	5.44 ± 0.05
308.15 K, x2 = 0.2021	803.62 ± 1	–
308.15 K, x2 = 0.2026	–	4.53 ± 0.05
308.15 K, x2 = 0.2982	789.08 ± 1	–
308.15 K, x2 = 0.3027	–	3.87 ± 0.04
308.15 K, x2 = 0.4018	776.58 ± 1	–
308.15 K, x2 = 0.4043	–	3.38 ± 0.03
308.15 K, x2 = 0.5024	766.76 ± 1	–
308.15 K, x2 = 0.505	–	3 ± 0.03
308.15 K, x2 = 0.6046	758.6 ± 1	–
308.15 K, x2 = 0.6068	–	2.7 ± 0.03
308.15 K, x2 = 0.6951	752.57 ± 1	–
308.15 K, x2 = 0.7013	–	2.48 ± 0.03
308.15 K, x2 = 0.8031	746.52 ± 1	–
308.15 K, x2 = 0.806	–	2.28 ± 0.02
308.15 K, x2 = 0.8975	–	2.14 ± 0.02
308.15 K, x2 = 0.899	741.95 ± 1	–
308.15 K, x2 = 0.9502	739.81 ± 1	–
308.15 K, x2 = 0.9512	–	2.07 ± 0.02

COCCOC [1,2-dimethoxyethane] + C1CCCCC1
96.6 kPa
Conditions	mass density, [1] [kg/m3]	relative permittivity, [2]
288.15 K, x2 = 0	872.06 ± 1	7.41 ± 0.07
288.15 K, x2 = 0.0459	–	7.02 ± 0.07
288.15 K, x2 = 0.0497	865.63 ± 1	–
288.15 K, x2 = 0.1021	859.14 ± 1	–
288.15 K, x2 = 0.1034	–	6.56 ± 0.07
288.15 K, x2 = 0.1974	847.96 ± 1	–
288.15 K, x2 = 0.2009	–	5.84 ± 0.06
288.15 K, x2 = 0.3013	–	5.17 ± 0.05
288.15 K, x2 = 0.3031	836.42 ± 1	–
288.15 K, x2 = 0.4026	826.35 ± 1	–
288.15 K, x2 = 0.4027	–	4.55 ± 0.05
288.15 K, x2 = 0.4967	817.52 ± 1	–
288.15 K, x2 = 0.5031	–	3.99 ± 0.04
288.15 K, x2 = 0.5998	808.62 ± 1	3.51 ± 0.04
288.15 K, x2 = 0.6961	801.06 ± 1	–
288.15 K, x2 = 0.7015	–	3.06 ± 0.03
288.15 K, x2 = 0.7953	–	2.69 ± 0.03
288.15 K, x2 = 0.8006	793.78 ± 1	–
288.15 K, x2 = 0.9017	–	2.33 ± 0.02
288.15 K, x2 = 0.9033	787.7 ± 1	–
288.15 K, x2 = 0.9494	–	2.19 ± 0.02
288.15 K, x2 = 0.9514	785.33 ± 1	–
298.15 K, x2 = 0	861.17 ± 1	7.07 ± 0.07
298.15 K, x2 = 0.0446	855.02 ± 1	–
298.15 K, x2 = 0.0475	–	6.7 ± 0.07
298.15 K, x2 = 0.0978	848.89 ± 1	–
298.15 K, x2 = 0.098	–	6.31 ± 0.06
298.15 K, x2 = 0.1963	837.39 ± 1	–
298.15 K, x2 = 0.2057	–	5.58 ± 0.06
298.15 K, x2 = 0.3034	–	4.96 ± 0.05
298.15 K, x2 = 0.3038	825.79 ± 1	–
298.15 K, x2 = 0.3952	–	4.43 ± 0.04
298.15 K, x2 = 0.4024	815.96 ± 1	–
298.15 K, x2 = 0.5013	806.83 ± 1	–
298.15 K, x2 = 0.5077	–	3.84 ± 0.04
298.15 K, x2 = 0.6014	–	3.41 ± 0.03
298.15 K, x2 = 0.6054	798.09 ± 1	–
298.15 K, x2 = 0.7018	790.78 ± 1	–
298.15 K, x2 = 0.7093	–	2.96 ± 0.03
298.15 K, x2 = 0.7994	–	2.63 ± 0.03
298.15 K, x2 = 0.8023	784.01 ± 1	–
298.15 K, x2 = 0.8965	778.59 ± 1	–
298.15 K, x2 = 0.9016	–	2.3 ± 0.02
298.15 K, x2 = 0.9498	776 ± 1	–
298.15 K, x2 = 0.952	–	2.16 ± 0.02
308.15 K, x2 = 0	850.13 ± 1	6.75 ± 0.07
308.15 K, x2 = 0.0454	844.13 ± 1	–
308.15 K, x2 = 0.0456	–	6.42 ± 0.06
308.15 K, x2 = 0.0969	838.11 ± 1	–
308.15 K, x2 = 0.0976	–	6.05 ± 0.06
308.15 K, x2 = 0.1954	826.9 ± 1	–
308.15 K, x2 = 0.1983	–	5.41 ± 0.05
308.15 K, x2 = 0.299	–	4.83 ± 0.05
308.15 K, x2 = 0.2993	815.83 ± 1	–
308.15 K, x2 = 0.3959	–	4.29 ± 0.04
308.15 K, x2 = 0.4037	805.56 ± 1	–
308.15 K, x2 = 0.4993	–	3.77 ± 0.04
308.15 K, x2 = 0.5042	796.44 ± 1	–
308.15 K, x2 = 0.6002	–	3.32 ± 0.03
308.15 K, x2 = 0.6072	787.93 ± 1	–
308.15 K, x2 = 0.6995	781.05 ± 1	–
308.15 K, x2 = 0.7005	–	2.93 ± 0.03
308.15 K, x2 = 0.8004	774.34 ± 1	–
308.15 K, x2 = 0.8012	–	2.58 ± 0.03
308.15 K, x2 = 0.902	–	2.27 ± 0.02
308.15 K, x2 = 0.904	768.62 ± 1	–
308.15 K, x2 = 0.9514	–	2.14 ± 0.02
308.15 K, x2 = 0.9535	766.31 ± 1	–
